Conditions: Liquid, Ebulliometric method (Recirculating still)

CCOC(C)OCC [1,1-diethoxyethane]
Conditions | vapor or sublimation pressure [kPa]
328.35 K | 19
341.62 K | 32.1
345.13 K | 36.7
348.33 K | 41.1
353.38 K | 49.2
357.95 K | 57.9
361.96 K | 66.1
364.68 K | 72.3
366.99 K | 77.9
369.09 K | 83.1
371.7 K | 90.1
373.41 K | 94.8
375.27 K | 100

Source: the NIST ThermoML archive (doi:10.1021/je049816w)
